Source: paper PMC8138732, “Comparative study of His- and Non-His-tagged CLIC proteins, reveals changes in their enzymatic activity” (Biochemistry and Biophysics Reports, 2021)

Columns and labels:
non-His-tagged CLIC3 = molecular target: T1, non-His-tagged CLIC3 (Homo sapiens, UniProt O95833); experiment: HEDS assay coupled to glutathione reductase, NADPH consumption at […] nm; format: biochemical; conditions: 1 mM GSH fixed, 250 uM NADPH, 0.5 ug/mL GR, 10 uM enzyme, 5 mM potassium phosphate, 1 mM EDTA, pH 7, 37 C; imidazole-free storage buffer
T1 construct: E. coli BL21(DE3); Ni-NTA and SEC; reduced soluble monomer
T1 sequence (O95833 whole entry): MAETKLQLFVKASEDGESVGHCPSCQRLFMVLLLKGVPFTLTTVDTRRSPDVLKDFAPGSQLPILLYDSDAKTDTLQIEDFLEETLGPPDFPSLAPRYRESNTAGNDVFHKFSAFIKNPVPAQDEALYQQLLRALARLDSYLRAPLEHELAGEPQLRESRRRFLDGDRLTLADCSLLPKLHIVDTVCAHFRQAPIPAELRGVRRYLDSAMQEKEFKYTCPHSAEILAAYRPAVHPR

non-His-tagged CLIC1 = non-His-tagged CLIC1 (Homo sapiens, UniProt O00299); conditions: 1 mM GSH fixed, 250 uM NADPH, 0.5 ug/mL GR, 10 uM enzyme, 5 mM potassium phosphate, 1 mM EDTA, pH 7, 37 C; imidazole-free storage buffer

## OCCSSCCO [HEDS]
non-His-tagged CLIC3
  Km: 994 µM
non-His-tagged CLIC1
  Km: 2500 µM
